Experimental data published in EP4813990A1, “COMPOUND FOR TREATING CANCER” (INNOLAKE BIOPHARMA (HANGZHOU) CO., LTD., priority 2023, dated 2025).

Tests used:
[1] = SD rat absorption test (pharmacokinetics); type: in vivo, SD rats; settings: for bioavailability / AUC(0-t) / half-life / clearance / Vd / Cmax: Sprague-Dawley, rat, plasma; for bioavailability: oral 12 mg/kg; for half-life: read-out: elimination half-life (T1/2) (converted); for clearance: read-out: plasma clearance rate (CL); for Vd: read-out: steady-state apparent volume of distribution (Vdss); for Cmax: read-out: peak concentrations (Cmax); for ratio of AUC0-last on Day 7 to Day 1 / ratio of Cmax on Day 7 to Day 1: continuous oral 40 mg/kg for 7 days
Protocol: (§1) According to the Technical Guidelines for Non-clinical Pharmacokinetic Studies of Drugs and the results of in vitro metabolic species difference studies, liquid chromatography-tandem mass spectrometry (LC-MS/MS) was used in this pharmacokinetic study to fully verify the analytical method for the determination of ILB-2109 content in plasma (EDTA-K2 anticoagulation) of Sprague-Dawley rats and cynomolgus monkeys. The linear range of the method was 20.0~20000 nM. The precision, accuracy and other indicators of the method were confirmed to comply with the relevant regulations of biological sample detection.
This experiment studied the pharmacokinetic properties of ILB-2109 in female and male SD rats, including 1) 2 mg/kg single intravenous injection administration study; 2) 12, 40 and 120 mg/kg oral dose escalation study; 3) 40 mg/kg repeated oral administration BID for 7 consecutive days.

[2] = system: CHL cells; assay: Chromosome aberration test; type: cell-based; settings: CHL cells treated at 3.2, 16.0 and 80.0 µg/mL
From the text: The test observed the effect of ILB-2109 on chromosome structure and number of mammalian cells (CHL cells).

[3] = Cynomolgus monkey absorption test (pharmacokinetics); type: in vivo, cynomolgus monkeys; settings: for Cmax: read-out: peak concentration (Cmax)
Protocol: as §1
This experiment studied the pharmacokinetic properties of ILB-2109 in female and male cynomolgus monkeys, including 1) 3 mg/kg single intravenous injection administration study; 2) 3, 15 and 60 mg/kg oral dose escalation study; 3) 15 mg/kg oral administration BID for 7 consecutive days.

[4] = system: bone marrow polychromatic erythrocytes; assay: Micronucleus test; type: in vivo; settings: SD rats, intragastric 500 ~ 2000 mg/kg
Protocol: SD rats were given intragastric administration of 500 ~ 2000 mg/kg ILB-2109.

[5] = Plasma protein binding; type: in vitro ADME; settings: human plasma
[6] = Liver microsome metabolism; type: in vitro ADME
From the text: The main biotransformation pathways of ILB-2109 in in vitro liver microsomes and hepatocytes include oxidation, dehydrogenation and glucuronidation (hepatocyte biotransformation pathway), and no human-specific metabolites were detected.

[7] = biological target: A2aR (Homo sapiens, UniProt P29274); assay: Inhibition of binding of A2aR to its isotopically labeled ligand
From the text: Meanwhile, ILB-2109 had high selectivity for A2aR (compared with A1, A2b and A3 receptors, the selectivity was 18.9 times, 40.7 times and 3424.7 times respectively).

[8] = 4-week repeated-dose toxicity test in cynomolgus monkeys; type: in vivo
From the text: In accordance with the relevant requirements of the Good Laboratory Practice for Non-clinical Drug Studies issued by the National Medical Products Administration of the People's Republic of China, and following the test protocol and revisions, the safety pharmacology test, single-dose toxicity, genetic toxicity, etc. of ILB-2109 were explored.
40 cynomolgus monkeys (half male and half female) were randomly divided into 4 groups with 5 animals per gender in each group, and given intragastric administration of 0 (vehicle), 20, 60 and 200 mg/kg/day ILB-2109 once a day for 28 consecutive days. […] Combined with gross observation and histopathological examination results, the cause of animal death was considered to be related to lung injury. […] All the above changes completely recovered during the recovery period. In addition, no drug-related changes were found in body temperature, respiration, electrocardiogram, ophthalmic examination and bone marrow. There was no gender difference in systemic exposure in each dose group; no obvious accumulation; the increase ratio of systemic exposure was lower than the increase ratio of dose.
Attention should be paid to the potential impact of ILB-2109 on respiratory system, blood system, endocrine system and other systems in clinical use.

[9] = Plasma protein binding; type: in vitro ADME; settings: one range given for CD-1 mice, Sprague-Dawley rats, Beagle dogs and cynomolgus monkeys
[10] = female SD rats, single intravenous injection 2 mg/kg
[11] = female SD rats, single oral 12 mg/kg
[12] = female SD rats, single oral 40 mg/kg
[13] = female SD rats, single oral 120 mg/kg
[14] = male SD rats, single intravenous injection 2 mg/kg
[15] = male SD rats, single oral 12 mg/kg
[16] = male SD rats, single oral 40 mg/kg
[17] = male SD rats, single oral 120 mg/kg
[18] = both sexes, cynomolgus monkey, plasma, po, 3 mg/kg, cynomolgus monkeys, single oral 3 mg/kg
[19] = both sexes, cynomolgus monkey, plasma, po, 15 mg/kg, cynomolgus monkeys, oral 15 mg/kg twice a day for 7 days, Day 1
[20] = both sexes, cynomolgus monkey, plasma, po, 15 mg/kg, cynomolgus monkeys, oral 15 mg/kg twice a day for 7 days, Day 7
[21] = both sexes, cynomolgus monkey, plasma, po, 15 mg/kg, cynomolgus monkeys, single oral 15 mg/kg
[22] = both sexes, cynomolgus monkey, plasma, po, 60 mg/kg, cynomolgus monkeys, single oral 60 mg/kg
[23] = female, cynomolgus monkey, in vivo, 20 mg/kg
[24] = female, cynomolgus monkey, in vivo, 60 mg/kg
[25] = male, cynomolgus monkey, in vivo, 20 mg/kg
[26] = male, cynomolgus monkey, in vivo, 60 mg/kg

Sequence of A2aR (P29274 whole entry): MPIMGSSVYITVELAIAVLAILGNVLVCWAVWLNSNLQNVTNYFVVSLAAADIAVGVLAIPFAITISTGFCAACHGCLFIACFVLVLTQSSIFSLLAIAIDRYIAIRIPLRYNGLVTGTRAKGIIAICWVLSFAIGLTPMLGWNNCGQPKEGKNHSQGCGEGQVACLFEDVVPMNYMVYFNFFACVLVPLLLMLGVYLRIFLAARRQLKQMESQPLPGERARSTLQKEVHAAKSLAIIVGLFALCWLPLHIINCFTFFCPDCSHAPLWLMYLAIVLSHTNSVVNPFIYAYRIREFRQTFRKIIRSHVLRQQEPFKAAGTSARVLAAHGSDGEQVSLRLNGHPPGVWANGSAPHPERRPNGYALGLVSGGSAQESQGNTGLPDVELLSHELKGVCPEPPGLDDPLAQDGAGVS

Cc1cc(-c2c(-c3ccccc3)nc(N)n3nc(CO)nc23)cc(C(F)(F)F)n1 [ILB-2109]
tolerability in the PK study ([1]; SD rats, all dose regimens of the absorption test): tolerated the compound well without any abnormal manifestations
bioavailability ([1]; female SD rats): 67.8%
AUC(0-t) [1, 10]: 60.3 ± 5.18 µM·h
half-life [1, 10]: 5.71 ± 1.25 h
clearance [1, 10]: 1.33 ± 0.135 mL/min/kg
Vd [1, 10]: 0.526 ± 0.0558 L/kg
AUC(0-t) [1, 11]: 247 ± 22.1 µM·h
Cmax [1, 11]: 33.7 ± 2.8 µM
AUC(0-t) [1, 12]: 915 ± 169 µM·h
Cmax [1, 12]: 124 ± 17.5 µM
AUC(0-t) [1, 13]: 1560 ± 205 µM·h
Cmax [1, 13]: 155 ± 24.3 µM
bioavailability ([1]; male SD rats): 73%
AUC(0-t) [1, 14]: 13.3 ± 2.26 µM·h
half-life [1, 14]: 1.26 ± 0.361 h
clearance [1, 14]: 6.3 ± 1.04 mL/min/kg
Vd [1, 14]: 0.681 ± 0.0975 L/kg
AUC(0-t) [1, 15]: 58.9 ± 19.2 µM·h
Cmax [1, 15]: 23.8 ± 2.23 µM
AUC(0-t) [1, 16]: 296 ± 54.1 µM·h
Cmax [1, 16]: 63.3 ± 1.65 µM
AUC(0-t) [1, 17]: 792 ± 167 µM·h
Cmax [1, 17]: 118 ± 19.8 µM
peak time [1, 11]: 2.33 ± 1.53 h
peak time [1, 12]: 3.33 ± 1.15 h
peak time [1, 13]: 2.67 ± 1.15 h
dose proportionality of systemic exposure (AUC0-last) and Cmax ([1]; female and male rats, oral dose range 12 to 40 mg/kg): increased basically proportionally to the dose
ratio of AUC0-last on Day 7 to Day 1 ([1]; female rats): 0.669
ratio of Cmax on Day 7 to Day 1 ([1]; female rats): 0.899
peak time [1, 15]: 0.667 ± 0.289 h
peak time [1, 16]: 1.33 ± 0.577 h
peak time [1, 17]: 2.67 ± 1.15 h
ratio of AUC0-last on Day 7 to Day 1 ([1]; male rats): 0.584
ratio of Cmax on Day 7 to Day 1 ([1]; male rats): 0.673
ratio of AUC0-last between female and male rats ([1]; oral single dose 12 mg/kg): 4.19
ratio of AUC0-last between female and male rats ([1]; oral single dose 40 mg/kg): 3.09
ratio of AUC0-last between female and male rats ([1]; oral single dose 120 mg/kg): 1.97
chromosome aberration test result [2]: negative
AUC(0-t) ([3]; both sexes, cynomolgus monkey, plasma, iv, 3 mg/kg, female and male cynomolgus monkeys, single intravenous injection 3 mg/kg): 39.5 ± 5.27 µM·h
AUC(0-t) [3, 18]: 35.2 ± 6.87 µM·h
Cmax [3, 18]: 8.19 ± 1.81 µM
AUC(0-t) [3, 19]: 172 ± 34.4 µM·h
Cmax [3, 19]: 18.2 ± 4 µM
AUC(0-t) [3, 20]: 268 ± 42.5 µM·h
Cmax [3, 20]: 28.3 ± 4.78 µM
AUC(0-t) [3, 21]: 192 ± 51.6 µM·h
Cmax [3, 21]: 33.9 ± 9.66 µM
AUC(0-t) [3, 22]: 571 ± 254 µM·h
Cmax [3, 22]: 59.3 ± 33.3 µM
bioavailability ([3]; both sexes, cynomolgus monkey, plasma, cynomolgus monkeys, 3 mg/kg oral dose group): 89.1%
half-life ([3]; both sexes, cynomolgus monkey, plasma, female and male cynomolgus monkeys, single intravenous injection 3 mg/kg, read-out: elimination half-life (T1/2) (converted)): 4.33 ± 0.75 h
clearance ([3]; both sexes, cynomolgus monkey, plasma, female and male cynomolgus monkeys, single intravenous injection 3 mg/kg, read-out: plasma clearance rate (CL)): 3.13 ± 0.361 mL/min/kg
Vd ([3]; both sexes, cynomolgus monkey, plasma, female and male cynomolgus monkeys, single intravenous injection 3 mg/kg, read-out: steady-state apparent volume of distribution (Vd)): 0.867 ± 0.141 L/kg
gender difference in systemic exposure (AUC0-last and Cmax) ([3]; cynomolgus monkeys, each oral dose): no significant gender difference
accumulation of systemic exposure ([3]; cynomolgus monkeys, oral 15 mg/kg twice a day for 7 consecutive days): no obvious accumulation of systemic exposure
peak time ([3]; cynomolgus monkeys, oral 15 mg/kg twice a day for 7 days): 3.00 ± 1.10 h
dose proportionality of systemic exposure (AUC0-last) ([3]; cynomolgus monkeys, oral dose 3 to 60 mg/kg): increased basically proportionally to the dose
peak time ([3]; cynomolgus monkeys, single oral 3 mg/kg): 1.33 ± 0.516 h
peak time ([3]; cynomolgus monkeys, single oral 15 mg/kg): 2.00 ± 1.10 h
peak time ([3]; cynomolgus monkeys, single oral 60 mg/kg): 4.00 ± 2.19 h
micronucleus induction [4]: no micronucleus-inducing effect
binding rate in plasma [5]: 95.1-95.8%
metabolism rate ([6]; Beagle dogs liver microsomes): slowly metabolized or non-metabolized
metabolism rate ([6]; CD-1 mice liver microsomes): moderate rate
metabolism rate ([6]; SD rats liver microsomes): moderate rate
metabolism rate ([6]; cynomolgus monkeys liver microsomes): slowly metabolized or non-metabolized
metabolism rate ([6]; human liver microsomes): slowly metabolized or non-metabolized
IC50 [7]: 2.92 nM
NOAEL at 28 days ([8]; both sexes, cynomolgus monkey, in vivo, po): 20 mg/kg
mortality ([8]; cynomolgus monkeys, high-dose group 200 mg/kg/day, death considered related to lung injury): 1 male animal in the high-dose group was found dying 2 h after administration on D3
HNSTD ([8]; cynomolgus monkeys, intragastric once a day, 28 consecutive days): 60 mg/kg
AUC(0-t) [8, 23]: 61 µg·h/mL
Cmax [8, 23]: 5010 ng/mL
AUC(0-t) [8, 24]: 149 µg·h/mL
Cmax [8, 24]: 11900 ng/mL
AUC(0-t) [8, 25]: 80.2 µg·h/mL
Cmax [8, 25]: 6580 ng/mL
AUC(0-t) [8, 26]: 206 µg·h/mL
Cmax [8, 26]: 14300 ng/mL
binding rate in plasma [9]: 87.3%-95.0%
